One experiment deals with calpain. In words: Calpain inhibition, fluorogenic substrate succinyl-Leu-Tyr-amino-4-methylcumarin. The format is biochemical. The note with it: 90 mM calpain; 1 mM substrate; 25° C.; pH 7.5; 5 mM CaCl2; read-out: Calpain Inhibitory Potency IC50. As for the experimental part:
77, 1565 (1986). A calpain preparation (5~10 μl) was placed on a floating filter membrane (Marusyk et al., Anal. Biochem. 105, 403 (1980)) (Millipore type VMWP) over a buffer containing 50 mM Tris/HCl, pH 7.5 and 2.5 mM EDTA for 45-60 minutes, carefully removed and used for the following inhibition study. Aliquots (25 μl) of the enzyme (calpain) and buffer or synthetic peptide were added to a cuvette at 25° C. containing 1 mM succinyl-Leu-Tyr-amino-4-methylcumarin as the substrate in a buffer consisting of 60 mM Tris/HCl, pH 7.5, 2.5% DMSO and 5 mM CaCl2. The rate of substrate hydrolysis was continuously recorded on a Perkin-Elmer LS-5 fluorescence spectrophotometer connected to a R100 chart recorder. […] The IC50 was calculated from the dose-dependent curve for each inhibitor. The IC50 corresponds to that concentration of inhibitory peptide that produced 50% inhibition of calpain activity. In all cases, […] was utilized.

The test system of another experiment is human platelets. The experiment can be described thus: Inhibition of agonist-induced aggregation of washed human platelets (aggregometer). The format is cell-based. Details: key to Inhibition of platelet aggregation, PMA / Inhibition of platelet aggregation, Thrombin / Inhibition of platelet aggregation, Plasmin / Inhibition of platelet aggregation, ADP / Inhibition of platelet aggregation, Collagen / Inhibition of platelet aggregation, U46619 / Inhibition of platelet aggregation, A23187: "+" indicates inhibition of platelet aggregation; "-" indicates the absence of inhibition of platelet aggregation; "partial" indicates a partial inhibition of platelet aggregation. As to conditions: for Inhibition of platelet aggregation, A23187: agonist A23187 2.5 uM; for Inhibition of platelet aggregation, A23187 / Inhibition of platelet aggregation, ADP / Inhibition of platelet aggregation, PMA / Inhibition of platelet aggregation, U46619 / Inhibition of platelet aggregation, Collagen / Inhibition of platelet aggregation, Plasmin / Inhibition of platelet aggregation, Thrombin: inhibitor peptide 0.8 nm, 37° C.; for Inhibition of platelet aggregation, ADP: agonist ADP 20 uM; for Inhibition of platelet aggregation, PMA: agonist PMA 0.016 uM; for Inhibition of platelet aggregation, U46619: agonist U46619 1 uM; for Inhibition of platelet aggregation, Collagen: agonist collagen 4 ug/ml; for Inhibition of platelet aggregation, Plasmin: agonist plasmin 0.025 uM; for Inhibition of platelet aggregation, Thrombin: agonist thrombin 0.02 uM. As for the experimental part:
Platelet-rich plasma was prepared by differential centrifugation (120×g, 30 min, 23° C.) of fresh whole human blood drawn into acid/citrate/dextrose (citric acid 0.079 M, sodium citrate, 0.085 M and dextrose 0.180 M) in a ratio of 1 ml of anticoagulant solution per 9 ml of blood. The platelets were washed and their suspensions prepared by a modification of the method of Mustard, et al., Brit. J. Haemat. 22, 193-204 (1972). The modifications included incubation of platelet-rich plasma with prostaglandin E1, hirudin and apyrase and two successive washes of the platelets with Tyrode-albumin buffer (without Ca^++) containing hirudin and apyrase, and apyrase alone. Platelet aggregation in the presence of each agonist and inhibitor peptide (0.8 nm) was performed at 37° C. under constant stirring (1100 rpm) conditions in a chronolog (Lumi) aggregometer. The total volume of the incubation mixture in the sample cuvette was 500 μl and the platelet concentration was adjusted to 5×10^8 /ml. The reference cuvette contained the suspension buffer. Platelet aggregation was initiated by the addition of the agonist to the sample cuvette. The data is indicated in the following table wherein "+" indicates inhibition of platelet aggregation, "-" indicates the absence of inhibition of platelet aggregation, and "partial" indicates a partial inhibition of platelet aggregation.

A further experiment deals with T1, papain (Carica papaya, UniProt P00784).
T1 sequence (P00784 134-345): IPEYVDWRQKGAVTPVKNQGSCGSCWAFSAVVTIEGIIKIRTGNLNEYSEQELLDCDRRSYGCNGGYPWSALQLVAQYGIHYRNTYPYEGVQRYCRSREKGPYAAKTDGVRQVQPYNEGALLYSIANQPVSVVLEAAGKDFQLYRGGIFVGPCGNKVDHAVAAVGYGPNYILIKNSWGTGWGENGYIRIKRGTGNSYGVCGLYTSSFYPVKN
As to conditions: Teno et al., Int. J. Peptide Protein Res. 30, 93-98 (1987); cited from earlier work.

Experiment [1] has as its system platelets. The experiment can be described thus: Platelet cAMP levels. The format is cell-based, human.
Experiment [2] deals with platelets. The experiment can be described thus: Platelet shape change induced by thrombin and plasmin. The format is cell-based, human.
For the next experiment, the target named is plasmin (Homo sapiens, UniProt P00747). The experiment can be described thus: Amidolytic activity of plasmin. The experiment is classed as biochemical.
Chain of plasmin (P00747 581-810 limits assumed, species assumed): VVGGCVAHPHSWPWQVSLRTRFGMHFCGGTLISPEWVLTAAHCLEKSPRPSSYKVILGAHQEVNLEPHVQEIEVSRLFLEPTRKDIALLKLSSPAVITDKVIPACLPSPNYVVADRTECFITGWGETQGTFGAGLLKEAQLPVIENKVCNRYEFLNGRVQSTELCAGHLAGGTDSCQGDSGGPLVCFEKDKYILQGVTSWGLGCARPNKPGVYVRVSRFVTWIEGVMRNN
Chain of plasmin (P00747 97-580 partner limits assumed, species assumed): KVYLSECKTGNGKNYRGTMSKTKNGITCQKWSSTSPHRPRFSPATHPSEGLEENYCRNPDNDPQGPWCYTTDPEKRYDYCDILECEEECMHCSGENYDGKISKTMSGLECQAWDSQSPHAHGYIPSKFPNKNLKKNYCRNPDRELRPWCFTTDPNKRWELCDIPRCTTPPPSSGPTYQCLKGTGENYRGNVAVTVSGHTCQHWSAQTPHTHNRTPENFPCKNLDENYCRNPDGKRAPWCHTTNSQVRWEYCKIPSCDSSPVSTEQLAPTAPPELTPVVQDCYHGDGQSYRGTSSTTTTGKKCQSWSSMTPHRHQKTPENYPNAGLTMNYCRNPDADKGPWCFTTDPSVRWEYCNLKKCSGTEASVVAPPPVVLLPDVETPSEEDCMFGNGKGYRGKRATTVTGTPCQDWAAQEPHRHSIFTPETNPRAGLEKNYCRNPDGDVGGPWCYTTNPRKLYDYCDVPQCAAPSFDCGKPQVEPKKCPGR
The test system of the next experiment is aggregen. In words: Thrombin- and plasmin-induced cleavage of labeled aggregen in intact radiolabeled platelets. The experiment is classed as cell-based, human.
In experiment [3] the target is T2, thrombin (Homo sapiens, UniProt P00734). In words: Fibrinogenolytic activity of thrombin. The experiment is classed as biochemical.
Experiment [4] concerns the target T2, thrombin. The experiment can be described thus: Amidolytic activity of thrombin. The format is biochemical.

pIC50: −log10 of the molar value. * marks the point of attachment. Npys = O=[N+]([O-])c1cccnc1S*

For “TFA.H-Arg-Gln-Val-Val-Cys(NPYS)-GlY-NH2 (H-RQVVC(Npys)G-NH2; also: TFA salt) [Example 3]”, the negative logarithm of the IC50 (pIC50) in the experiment with calpain was 4.26. In addition, in the experiment with human platelets, the “Inhibition of platelet aggregation, A23187” value (“Inhibition … A23187” below) was “partial”; the “Inhibition of platelet aggregation, ADP” value is on record as “+”; the “Inhibition of platelet aggregation, PMA” value was “+”; the “Inhibition of platelet aggregation, U46619” value (“Inhibition … U46619” for short) is on record as “+”. Further, in the experiment on human platelets, the “Inhibition of platelet aggregation, Collagen” value (from here on “Inhibition … Collagen”) is recorded as “+”; the “Inhibition of platelet aggregation, Plasmin” value was “+”; the “Inhibition of platelet aggregation, Thrombin” value is recorded as “+”.

Take “Gln-Val-Val-Ala-Gly (QVVAG; printed: Gln-Val-Val-Ala-Gly) [QVAAG, pentapeptide of kininogen D2 and D3 repeats]”: the “activity in inhibiting the thiol protease papain” value with papain is recorded as “weak activity”.

As to “TFA.H-Gln-Val-Val-Cys(NpyS)-Gly-NH2 (H-QVVC(Npys)G-NH2; also: TFA salt) [Example 5]”, the pIC50 with calpain was 4.44. For the same substance, in the experiment with human platelets, the “Inhibition … A23187” value is “partial”; the “Inhibition of platelet aggregation, ADP” value is on record as “+”; the “Inhibition of platelet aggregation, PMA” value is on record as “+”; the “Inhibition … U46619” value is “+”. In addition, in the experiment on human platelets, the “Inhibition … Collagen” value is on record as “+”; the “Inhibition of platelet aggregation, Plasmin” value is recorded as “+”; the “Inhibition of platelet aggregation, Thrombin” value is on record as “+”.

Consider “TFA.H-Phe-Gln-Leu-Val-Cys(NpyS)-Gly-NH2 (H-FQLVC(Npys)G-NH2; also: TFA salt) [Example 2]”, for which the pIC50 in the experiment on calpain is 5.25. In addition, in the experiment with human platelets, the “Inhibition … A23187” value was “partial”; the “Inhibition of platelet aggregation, ADP” value was “partial”; the “Inhibition of platelet aggregation, PMA” value is “partial”; the “Inhibition … U46619” value is “partial”. In addition, in the experiment on human platelets, the “Inhibition … Collagen” value is reported as “partial”; the “Inhibition of platelet aggregation, Plasmin” value was “+”; the “Inhibition of platelet aggregation, Thrombin” value is “+”.

Regarding “TFA.H-Ala-Gln-Val-Val-CYs (NpyS)-GlY-NH2 (H-AQVV-{Cys(NpyS)-Gly-NH2}; also: TFA salt) [Example 4]”, the pIC50 with calpain is 4.80. In addition, in the experiment on human platelets, the “Inhibition … A23187” value was “partial”; the “Inhibition of platelet aggregation, ADP” value is recorded as “+”; the “Inhibition of platelet aggregation, PMA” value is listed as “+”; the “Inhibition … U46619” value was “+”. In the experiment on human platelets, the “Inhibition … Collagen” value is on record as “+”; the “Inhibition of platelet aggregation, Plasmin” value was “+”; the “Inhibition of platelet aggregation, Thrombin” value is recorded as “+”.

With “TFA.H-Phe-Gln-Val-Val-Cys(NpyS)-Gly-NH2 (H-FQVVC(Npys)G-NH2; also: TFA salt) [Example 1]”, the platelet-cAMP levels entry in the experiment on platelets [1] is reported as “did not raise”. Moreover, in the experiment with calpain, the pIC50 was 5.39. Further, the “effect on platelet shape change introduced by thrombin and plasmin” value in the experiment on platelets [2] is “no effect”. The “inhibition of amidolytic activity of plasmin” value with plasmin is reported as “did not inhibit”. In addition, in the experiment with human platelets, the “Inhibition … A23187” value is given as “-”; the “Inhibition of platelet aggregation, ADP” value was “-”; the “Inhibition of platelet aggregation, PMA” value is “-”; the “Inhibition … U46619” value is given as “-”. Further, in the experiment with human platelets, the “Inhibition … Collagen” value is on record as “-”; the “Inhibition of platelet aggregation, Plasmin” value is given as “+”; the “Inhibition of platelet aggregation, Thrombin” value is on record as “+”. The “aggregation induced by any of the other agonists tested” value in the experiment with human platelets (agonists other than thrombin and plasmin) is reported as “did not inhibit”. Moreover, the “thrombin- and plasmin induced cleavage of [^3 H]-5'-p-fluorosulfonylbenzoyl adenosine-labeled aggregen” value with aggregen is reported as “completely inhibited”. Moreover, the “inhibition of fibrinogenolytic activity of thrombin” value in the experiment with thrombin [3] is listed as “did not inhibit”. For the same substance, the “inhibition of amidolytic activity of thrombin” value in the experiment with thrombin [4] is “did not inhibit”.

These data come from patent US5428020A, “Cysteine (NPYS)-containing peptides and use thereof for inhibiting platelet aggregation” (Matsueda; Rei, priority 1994, dated 1995).
